Experimental findings from ChEMBL document CHEMBL1201862, “PubChem BioAssay data set” (2004) are described below.

Among the test systems are SN12C; HOP-92; OVCAR-8; Malme-3M; HOP-62; 786-0; HL-60; HCT-15; SF-295; Hs-578T; LOX IMVI; CCRF-CEM; EKVX; SW-620; A498; HT-29; OVCAR-3; T47D; MOLT-4; SR.
What all share (experiment): growth of human tumour cells (NCI), 48 h

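Tested at 5 concentrations; 48 h exposure; 96-well plates; endpoints linearly interpolated, else capped at highest concentration. Abbreviation: GI50, concentration required for 50% inhibition of growth.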 Active and inactive are the calls of the source. No stated cut-off is given here; in the data, active = GI50 up to about 1.1 µM and inactive = higher.

Turning to `c1ccc(-c2cnc(-c3ccc(-c4ncc(-c5ccccc5)o4)cc3)o2)cc1`, the GI50 in the assay with SN12C, in the assay on HOP-92, in the assay on OVCAR-8, in the assay with Malme-3M, in the assay on HOP-62 and in the assay with 786-0 was > 100 µM (inactive) each time. For the same compound, the GI50 is > 100 µM (inactive) in the assay on HL-60; greater than 100 µM in the assay with HCT-15; > 100 µM (inactive) with SF-295; > 100 µM (inactive) in the assay with Hs-578T; > 100 µM (inactive) in the assay with LOX IMVI; > 100 µM (inactive) in the assay with CCRF-CEM. Also, the GI50 in the assay with EKVX, in the assay with SW-620, in the assay with A498, in the assay with HT-29, with OVCAR-3 and with T47D was > 100 µM (inactive) in each case. The GI50 in the assay on MOLT-4 was > 100 µM (inactive).
Take `COc1ccc(C2OC(c3ccncc3)=NN2C)cc1OC` (stereo not drawn): the GI50 with SN12C is > 100 µM (inactive); in the assay on HOP-92 it was 48.9 µM (inactive); with OVCAR-8 it was > 100 µM (inactive); with Malme-3M, > 100 µM (inactive); in the assay with HOP-62, 94.6 µM (inactive); in the assay on 786-0, > 100 µM (inactive). In addition, the GI50 in the assay on HL-60 was 96.8 µM (inactive); in the assay with HCT-15, greater than 100 µM; with SF-295 it was > 100 µM (inactive); in the assay with Hs-578T, 67 µM (inactive); with LOX IMVI, > 100 µM (inactive); in the assay with CCRF-CEM, > 100 µM (inactive). Also, the GI50 is > 100 µM (inactive) in the assay with EKVX; > 100 µM (inactive) in the assay with SW-620; 33.5 µM (inactive) in the assay with A498; > 100 µM (inactive) in the assay on HT-29; > 100 µM (inactive) with OVCAR-3; 67.1 µM (inactive) in the assay with T47D. For the same compound, in the assay with MOLT-4, the GI50 was 75.7 µM (inactive).
For the compound `Cc1cc2c(cc1Cl)SC(NNc1cnc3ccccc3n1)=NS2(=O)=O`, the GI50 is 88.3 µM (inactive) in the assay with SN12C; 35.7 µM (inactive) in the assay with HOP-92; 68.5 µM (inactive) with OVCAR-8; 22.6 µM (inactive) in the assay on Malme-3M; 41.7 µM (inactive) in the assay on HOP-62; 38.3 µM (inactive) with 786-0. The GI50 was > 100 µM (inactive) in the assay on HL-60; 75.2 µM in the assay on HCT-15; 29.9 µM (inactive) in the assay on SF-295; 51.9 µM (inactive) in the assay with Hs-578T; 46 µM (inactive) with LOX IMVI; 46.8 µM (inactive) in the assay on CCRF-CEM. For the same compound, the GI50 in the assay with EKVX was > 100 µM (inactive); in the assay with SW-620, 67.8 µM (inactive); in the assay on A498 it was 22.8 µM (inactive); in the assay with HT-29 it was > 100 µM (inactive); with OVCAR-3, 47.4 µM (inactive); in the assay on T47D, 55.1 µM (inactive). Further, in the assay on MOLT-4, the GI50 is 26.6 µM (inactive).
Consider `CC1=CC[C@@]2(CO)[C@@H]([C@@H]1C)[C@H]1CC[C@@H]3[C@@]4(C)CC[C@H](O)C(C)(C)[C@@H]4CC[C@@]3(C)[C@]1(C)C[C@@H]2O`, for which the GI50 is 75.3 µM (inactive) in the assay with SN12C; 16.9 µM (inactive) in the assay with HOP-92; 14.3 µM (inactive) with OVCAR-8; 20.3 µM (inactive) in the assay with Malme-3M; 14.3 µM (inactive) with HOP-62; 24.5 µM (inactive) with 786-0. For the same compound, the GI50 is 11.7 µM (inactive) with HL-60; 46.3 µM in the assay on HCT-15; 17 µM (inactive) in the assay on SF-295; 15.8 µM (inactive) in the assay with Hs-578T; 15.8 µM (inactive) in the assay on LOX IMVI; 41.1 µM (inactive) in the assay with CCRF-CEM. Besides, the GI50 in the assay with EKVX was 33.3 µM (inactive); in the assay on SW-620 it was 35.6 µM (inactive); in the assay with A498, 24 µM (inactive); in the assay on HT-29, 29.8 µM (inactive); in the assay with OVCAR-3 it was 31.5 µM (inactive); with T47D it was 11.9 µM (inactive). Also, the GI50 in the assay on MOLT-4 is 21.3 µM (inactive).
Regarding `O=C1OC(C2Cc3cc4c(cc3C2=O)CCC4)c2ccccc21` (stereo not drawn), the GI50 with SN12C was 63 µM (inactive); in the assay with OVCAR-8, 67.1 µM (inactive); with Malme-3M, > 100 µM (inactive); with HOP-62, 65 µM (inactive); in the assay with 786-0, 80 µM (inactive); in the assay with HL-60, 42.9 µM (inactive). Moreover, the GI50 with SR is 35.7 µM (inactive); in the assay on HCT-15 it was 34.3 µM; in the assay with SF-295, 74.5 µM (inactive); in the assay on Hs-578T, 22.5 µM (inactive); in the assay on LOX IMVI it was 37 µM (inactive); with CCRF-CEM it was 25.6 µM (inactive). The GI50 with EKVX was 49.5 µM (inactive); in the assay with SW-620 it was 37.3 µM (inactive); in the assay on A498, 25.9 µM (inactive); in the assay on HT-29, 30.6 µM (inactive); in the assay with OVCAR-3, 77.6 µM (inactive); in the assay on T47D, 71.3 µM (inactive). Moreover, the GI50 with MOLT-4 is 23.7 µM (inactive).
Regarding `Cc1cc2c(c(C(=O)NCCC(=O)N[C@@H](C)C(=O)OCc3ccccc3)c1)Oc1c(cc(C)cc1C(=O)NCCC(=O)N[C@@H](C)C(=O)OCc1ccccc1)S2`, the GI50 is > 100 µM (inactive) in the assay on SN12C; > 100 µM (inactive) in the assay with OVCAR-8; > 100 µM (inactive) in the assay on Malme-3M; > 100 µM (inactive) in the assay on HOP-62; > 100 µM (inactive) in the assay with 786-0; 43.3 µM (inactive) with SR. Moreover, the GI50 in the assay with HCT-15 is greater than 100 µM; with SF-295 it was > 100 µM (inactive); in the assay on Hs-578T it was > 100 µM (inactive); in the assay on CCRF-CEM, > 100 µM (inactive); in the assay on EKVX, > 100 µM (inactive); in the assay on SW-620, > 100 µM (inactive). Further, the GI50 in the assay with A498, in the assay with HT-29, in the assay with OVCAR-3, with T47D and in the assay with MOLT-4 was > 100 µM (inactive) each time.
Consider `FC1C2=C(SC1(F)F)C1CCC2C1` (stereo not drawn), for which the GI50 with HOP-92, with OVCAR-8, in the assay on Malme-3M, in the assay with 786-0, in the assay with HL-60 and with SR was > 100 µM (inactive) throughout. The GI50 in the assay on HCT-15 is greater than 100 µM; with SF-295, > 100 µM (inactive); in the assay on Hs-578T, > 100 µM (inactive); in the assay with LOX IMVI, > 100 µM (inactive); in the assay with EKVX, > 100 µM (inactive); with SW-620, > 100 µM (inactive). Also, the GI50 in the assay on HT-29, with OVCAR-3, in the assay with T47D and with MOLT-4 was > 100 µM (inactive) each time.
In the case of `CN(CC#N)C(=O)Cc1ccc([N+](=O)[O-])cc1`, the GI50 in the assay with SN12C, in the assay with OVCAR-8, with Malme-3M, in the assay with HOP-62, in the assay with 786-0 and in the assay with HL-60 was > 10 µM (inactive) in each case. For the same compound, the GI50 is > 10 µM (inactive) in the assay on SR; greater than 10 µM with HCT-15; > 10 µM (inactive) in the assay on SF-295; > 10 µM (inactive) in the assay with Hs-578T; > 10 µM (inactive) in the assay with LOX IMVI; > 10 µM (inactive) with CCRF-CEM. The GI50 with EKVX, in the assay on SW-620, in the assay with A498, in the assay on HT-29, in the assay with OVCAR-3 and in the assay on T47D was > 10 µM (inactive) in each case. Moreover, the GI50 with MOLT-4 was > 10 µM (inactive).
Regarding `C[N+](C)(CCCn1ccnc1[N+](=O)[O-])CCCn1ccnc1[N+](=O)[O-]`, the GI50 in the assay with SN12C, in the assay on OVCAR-8, in the assay on Malme-3M, in the assay with HOP-62, in the assay on 786-0 and in the assay with HL-60 was > 100 µM (inactive) in each case. Besides, the GI50 in the assay on SR is > 100 µM (inactive); with HCT-15, greater than 100 µM; in the assay on SF-295 it was > 100 µM (inactive); in the assay on Hs-578T, > 100 µM (inactive); in the assay with LOX IMVI it was > 100 µM (inactive); in the assay with CCRF-CEM it was > 100 µM (inactive). Moreover, the GI50 in the assay with EKVX, with SW-620, in the assay with A498, in the assay on HT-29, in the assay with OVCAR-3 and in the assay with T47D was > 100 µM (inactive) each time. Also, the GI50 in the assay with MOLT-4 is > 100 µM (inactive).
Consider `Nc1ncnc2c1ncn2C1OC(COP(=O)(O)CP(=O)(O)O)C(O)C1O` (stereo not drawn), for which the GI50 in the assay on SN12C, in the assay on OVCAR-8, with Malme-3M, in the assay on HOP-62, in the assay on 786-0 and in the assay with HL-60 was > 100 µM (inactive) throughout. Besides, the GI50 in the assay with SR was > 100 µM (inactive); in the assay with HCT-15, greater than 100 µM; in the assay on SF-295, > 100 µM (inactive); in the assay on Hs-578T, > 100 µM (inactive); in the assay with LOX IMVI, > 100 µM (inactive); in the assay on CCRF-CEM, > 100 µM (inactive). The GI50 in the assay with EKVX, in the assay with SW-620, in the assay with A498, with HT-29, with T47D and in the assay with MOLT-4 was > 100 µM (inactive) each time.
Take `CSc1ccc(/C=C2\N=C(c3ccccc3)N(c3nc4ccc(Sc5ccccc5)cc4[nH]3)C2=O)cc1`: the GI50 in the assay with SN12C is 21.7 µM (inactive); in the assay on HOP-92, 33.6 µM (inactive); with OVCAR-8, 28.2 µM (inactive); in the assay with Malme-3M, 16.6 µM (inactive); in the assay on HOP-62, 17.2 µM (inactive); in the assay with 786-0 it was 13.9 µM (inactive). The GI50 was 14.2 µM (inactive) in the assay with HL-60; 18.2 µM in the assay on HCT-15; 14.3 µM (inactive) in the assay on SF-295; 18.6 µM (inactive) with Hs-578T; 17.6 µM (inactive) in the assay on LOX IMVI; 27.4 µM (inactive) in the assay on CCRF-CEM. For the same compound, the GI50 with EKVX is 31 µM (inactive); in the assay on SW-620, 17.9 µM (inactive); with A498 it was 18.2 µM (inactive); in the assay on HT-29, 17.5 µM (inactive); in the assay with OVCAR-3, 2.01 µM (inactive); in the assay on T47D, 20.5 µM (inactive). Further, in the assay on MOLT-4, the GI50 was 22.3 µM (inactive).
